According to patent publication US4609736A, “Rhodanines useful as a therapeutic agent for diabetic complications” (Kaken Pharmaceutical Co., Ltd., priority 1983, dated 1986):
Where two headings read alike, the source gives them in different places.

Assays:
[1] = test system: thrombin-induced aggregation of washed rabbit platelets; assay: Platelet aggregation inhibiting activity (thrombin-induced aggregation of washed rabbit platelets); assay type: cell-based, rabbit (albino, white local breed); conditions: for IC50: Oryctolagus cuniculus, Platelet, Table 2; for platelet aggregation inhibiting activity relative to Dipyridamole (Persantine): times that of Dipyridamole
Description: Blood samples were collected from the auricular blood vessel of albino rabbits (white local breed), and washed platelets were prepared therefrom by the method of Baenziger et al. [N. L. Baenziger and P. W. Majerus, Methods in Enzymology, 31, 149 to 155 (1974)]. The platelets were suspended in a 15 mM Tris-hydrochloric acid buffer in a final concentration of 6×10^8 cells/ml (Tris: tris(hydroxymethyl)aminomethane). Each test compound was added thereto and incubation was carried out at 37° C. for 2 minutes. Then, the platelets were stimulated by addition of thrombin (final concentration 0.2 unit/ml; made by Mochida Pharmaceutical Co.) and the aggregation inhibiting activity was estimated by observation of the aggregation reaction using an aggregometer (made by Briston Co.).
The results obtained are shown in Table 2 in terms of IC50 (50% inhibition concentration in M).

aldose reductase = target: T1, aldose reductase (Rattus norvegicus, UniProt P07943); assay: Aldose reductase inhibiting activity; assay type: biochemical, rat (Wistar strain male, eye lens); conditions: rat lens crude enzyme; DL-glyceraldehyde 10 mM, NADPH 0.104 mM, pH 6.2; Table 3; read-out: IC50 (50% inhibition concentration), aldose reductase
T1 construct: the supernatant was used as the crude enzyme solution; from tissue; host or cells: eye lens of male Wistar rats, 10,000 g supernatant of the homogenate
Description: Thus, Wistar strain male rats were sacrificed by decapitation, the lenses were excised and homogenized with a 0.1M phosphate buffer [pH 6.8; containing 1 mM of mercaptoethanol and 1 mM of nicotinamide-adenine dinucleotide phosphate (NADP)]. The homogenate was then centrifuged at 10,000 g for 15 minutes and the supernatant was used as the crude enzyme solution.
To this buffer solution, there was added 15 μl of each of solutions of each test compound in varied concentrations, followed by addition of 25 μl of the crude enzyme solution prepared in advance, to thereby initiate the reaction.

[2] = Acute toxicity in mice (oral); conditions: mouse, in vivo, oral gavage in 10% gum arabic, 2 weeks
[3] = 2 min, washed rabbit platelets 6×10^8 cells/ml, thrombin 0.2 unit/ml, 37° C., 2 minutes incubation, read-out: IC50 (50% inhibition concentration), platelet aggregation
[4] = read-out: concentration that inhibited the thrombin-induced aggregation of washed rabbit platelets by 50%

| SMILES | IC50 [1, 3] [µM] | IC50 (aldose reductase) [µM] | LD50 at 336 h [2] [mg/kg] | platelet aggregation inhibiting activity (in words) [1] | IC50 [1, 4] [µM] | platelet aggregation inhibiting activity relative to Dipyridamole (Persantine) [1] |
| --- | --- | --- | --- | --- | --- | --- |
| CC(C)(C)C=C1SC(=S)N(CC(=O)O)C1=O [compound 3, 3-Carboxymethyl-5-(2,2-dimethylpropylidene)rhodanine] | > 300 | 0.1 | – | – | – | – |
| CC(C)=CCCC(C)=CC=C1SC(=S)N(CC(=O)O)C1=O [compound 12, 3-Carboxymethyl-5-(3,7-dimethyl-2,6-octadienylidene)rhodanine] | > 300 | – | 3500 to 5000 | – | – | – |
| CC=CC=CC=C1SC(=S)N(CC(=O)O)C1=O [Compound No. 11, 3-Carboxymethyl-5-(2,4-hexadienylidene)rhodanine] | 20 | 0.046 | 3500 to 5000 | noticeably strong platelet aggregation inhibiting activity | 20 to 40 | about 10 times |
| CCC=C1SC(=S)N(CC(=O)O)C1=O [Compound No. 1, 3-Carboxymethyl-5-propylidenerhodanine] | > 300 | 0.2 | – | – | – | – |
| O=C(O)CN1C(=O)C(=CCCCCl)SC1=S [compound 2, 3-Carboxymethyl-5-(4-chlorobutylidene)rhodanine] | > 300 | 0.14 | – | – | – | – |
| CCCC=CC=C1SC(=S)N(CC(=O)O)C1=O [Compound No. 10, 3-Carboxymethyl-5-(2-hexenylidene)rhodanine] | 30 | 0.04 | 3500 to 5000 | noticeably strong platelet aggregation inhibiting activity | 20 to 40 | about 10 times |
| CC=CC=C1SC(=S)N(CC(=O)O)C1=O [Compound No. 7, 3-Carboxymethyl-5-(2-butenylidene)rhodanine] | 20 | 0.07 | 3500 to 5000 | noticeably strong platelet aggregation inhibiting activity | 20 to 40 | about 10 times |
| CCCCCC=C1SC(=S)N(CC(=O)O)C1=O [compound 5, 3-Carboxymethyl-5-n-hexylidenerhodanine] | > 300 | 0.13 | – | – | – | – |
| CCCCCCCCCCC=C1SC(=S)N(CC(=O)O)C1=O [compound 4, 3-Carboxymethyl-5-undecylidenerhodanine] | > 300 | 0.3 | – | – | – | – |
| CC(C)=CC=C1SC(=S)N(CC(=O)O)C1=O [compound 9, 3-Carboxymethyl-5-(3-methyl-2-butenylidene)rhodanine] | > 400 | 0.1 | – | – | – | – |
| C=CC=C1SC(=S)N(CC(=O)O)C1=O [Compound No. 6, 3-Carboxymethyl-5-allylidenerhodanine] | 30 | 0.75 | – | noticeably strong platelet aggregation inhibiting activity | 20 to 40 | about 10 times |
| O=C(O)CN1C(=O)C(=CC=CCCl)SC1=S [Compound No. 8, 3-Carboxymethyl-5-(4-chloro-2-butenylidene)rhodanine] | 20 | 0.13 | – | noticeably strong platelet aggregation inhibiting activity | 20 to 40 | about 10 times |
| CC(C)=CCCC(C)=CCCC(C)=CCCC(C)=CC=C1SC(=S)N(CC(=O)O)C1=O [Compound No. 13, 3-Carboxymethyl-5-(3,7,11,15-tetramethyl-2,6,10,14-hexadecatetraenylidene)rhodanine] | 40 | 0.65 | 3500 to 5000 | noticeably strong platelet aggregation inhibiting activity | 20 to 40 | about 10 times |
